Measured values published in patent publication US20210008018A1, “DEUTERATED ANALOGS OF D-BETA-HYDROXYBUTYRIC ACID AND USES THEREOF” (Concert Pharmaceuticals, Inc., priority 2018, published 2021).

What was measured:
[1] = biological target: β-hydroxybutyrate dehydrogenase from Pseudomonas lemoignei (Paucimonas lemoignei, UniProt A0A4R3I0R9); test: Metabolic stability using D-β-hydroxybutyrate dehydrogenase (NADH formation, Km/Vmax); details: for CLint Ratio (NCE/PCE): NCE = Compound 100, 102 or 202, PCE = protio DBHB; for T1/2 Δ (%): [(deuterated species)-(nondeuterated species)](100)/(nondeuterated species); for half-life: b-hydroxybutyrate dehydrogenase, pH 7.8; for Vmax: compound as substrate, NADH formation, Michaelis-Menten non-linear regression, 100 mM Tris pH 7.8; for ^DV: deuterium isotope effect on Vmax versus D-β-hydroxybutyric acid; for ^D(V/K): deuterium isotope effect on Vmax/Km versus D-β-hydroxybutyric acid; for CLint: intrinsic clearance calculated from Vmax and Km
Chain of β-hydroxybutyrate dehydrogenase from Pseudomonas lemoignei (A0A4R3I0R9 entry or part of it): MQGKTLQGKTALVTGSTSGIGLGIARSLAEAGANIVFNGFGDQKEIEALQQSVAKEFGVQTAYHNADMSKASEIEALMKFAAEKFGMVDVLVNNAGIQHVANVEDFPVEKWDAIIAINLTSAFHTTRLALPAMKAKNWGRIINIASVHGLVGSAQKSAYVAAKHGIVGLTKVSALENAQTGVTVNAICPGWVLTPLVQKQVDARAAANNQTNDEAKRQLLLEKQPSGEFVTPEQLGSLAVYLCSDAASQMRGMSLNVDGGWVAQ
Procedure: (§1) Materials: β-Hydroxybutyrate Dehydrogenase from Pseudomonas lemoignei, nicotinamide adenine dinucleotide sodium salt (NAD), β-nicotinamide adenine dinucleotide, reduced dipotassium salt (NADH) and Trizma Base were purchased from Sigma-Aldrich.
(§2) Determination of Metabolic Stability of Compounds of the Invention Using D-β-hydroxybutyrate Dehydrogenase: 100 mM Tris pH 7.8 was prepared for assessing catalytic activity and as diluent to form corresponding solutions. Enzyme solution was prepared by dissolving lyophilized β-hydroxybutyrate dehydrogenase from Pseudomonas lemoignei in 100 mM Tris pH 7.8 to a final concentration of 200 Units/mL. The enzyme working stock solution (2 Units/mL) was prepared by dilution of stock solution (200 Units/mL) with 100 mM Tris pH 7.8 buffer. 30 mM NAD stock solution was prepared by dissolving NAD in 100 mM Tris pH 7.8 buffer. […] Working stock solutions of test compounds were prepared over the concentration range of 1 to 40 mM by appropriate dilutions in 100 mM Tris pH 7.8 buffer. 10 mM analytical standard stock solution were prepared by dissolving NADH in 100 mM Tris pH 7.8. Analytical standards were prepared over the concentration range of 0.05 to 1.5 mM by appropriate dilutions in 100 mM Tris pH 7.8. Enzymatic assays were conducted by aliquoting 40 μL of working test compound stock solution, 6 μL of enzyme working stock solution, 178 μL 100 mM Tris pH 7.8 into 96-well white clear bottom plates. The enzymatic assay was initiated by adding 16 μL of 30 mM NAD. The reaction was incubated at 37° C. The progress of each reaction was monitored over 15 minutes by measuring absorbance at […] of all wells every minute using a Perkin Elmer Enspire Multimode plate reader. Blank wells were prepared to subtract background. NADH formation was quantified using NADH analytical standard curve on same 96-well plate used to monitor enzyme activity. All reactions were conducted in triplicate.
(§3) The activity was determined by monitoring the rate of conversion of NAD to NADH by change in absorbance at 340 nm. The appropriate background was subtracted for each concentration and compound investigated and NADH concentration formed was calculated using NADH standard curve. The initial rates (v) for NADH formation as a function of initial test compound concentration (C) to derive Km and Vmax values by non-linear regression using Michaelis-Menten equation using GraphPad Prism 7 for Windows (version 7.03).
(§4) Difference between Vmax, Km and catalytic efficiency (Vmax/Km) for each compound was assessed using unpaired t-test with statistical significance using Holm-Sidak method with α=0.05. The unpaired t-test values were calculated using GraphPad Prism 7 for Windows (version 7.03).
(§5) Intrinsic clearance (CLint) and half-life (t1/2) values were calculated for each test compound using the following equations.

[2] = biological target: β-hydroxybutyrate dehydrogenase (Paucimonas lemoignei, UniProt A0A4R3I0R9); test: as above; details: Pseudomonas lemoignei, pH 7.8
Chain of β-hydroxybutyrate dehydrogenase (A0A4R3I0R9 entry or part of it): as above
Procedure: as §1, §2, §3, §4, §5

[3] = using Vmax/Km to predict clearance, vs D-β-hydroxybutyric acid, 0.167 mM to 6.7 mM
[4] = vs D-β-hydroxybutyric acid, D-β-Hydroxybutyrate Dehydrogenase Assay

SMILES	CLint Ratio (NCE/PCE) [1]	T1/2 Δ (%) [1] [%]	half-life [1] [min]	Vmax ([1]; 0.167 mM to 6.7 mM) [µmol/mL/min]	^DV [1]	^D(V/K) [1]	CLint [1] [mL/min]	clearance predicted to be reduced by, compared to D-β-hydroxybutyric acid [1, 3] [%]	increase in half-life (T1/2) [1, 4] [%]	half-life [2] [min]	clearance predicted to be increased by, compared to D-β-hydroxybutyric acid [1, 3] [%]	decrease in half-life (T1/2) [1, 4] [%]
[2H]C([2H])([2H])[C@@]([2H])(O)CC(=O)O [Compound 102, (R)-3-hydroxybutanoic-3,4,4,4-d4 Acid]	0.5	114	55.7	0.0213	1.0	2.1	0.0125	50	114	–	–	–
[2H][C@](C)(O)CC(=O)O [Compound 100, (R)-3-Hydroxybutanoic-3-d1 Acid]	0.7	40.2	–	–	1.1	1.4	0.0190	30	40	36.4	–	–
C[C@@H](O)CC(=O)O [DBHB, D-β-hydroxybutyric acid, reference compound]	–	–	–	–	–	–	0.0267	–	–	26	–	–
[2H]C([2H])([2H])[C@@H](O)CC(=O)O [Compound 202, (R)-3-hydroxybutanoic-4,4,4-d3 Acid]	2.0	−48.7	13.3	0.0330	0.7	0.5	0.0520	–	–	–	100	~49
